Test results: patent US20240131044A1, “METHOD FOR TREATING CANCER” (M.T.3, Inc., priority 2022, published 2024)

Assays:
[1] = system: human colon adenocarcinoma; details: in combination with radiation; mouse with transplanted human colon adenocarcinoma; cited from earlier work
[2] = system: human esophageal squamous cell carcinoma; details: in combination with radiation; mouse with transplanted human esophageal squamous cell carcinoma; cited from earlier work
angiogenesis = details: in combination with radiation; cited from earlier work
CHO cells = assay: Colony formation, survival fraction of CHO cells; assay type: cell-based, Chinese hamsters; details: mitomycin C 500 nM, SQAP not administered
Description: (§1) An anti-cancer agent and a pharmaceutical composition were administered to test cells and then the cells were cultured. Then, after colonies were formed, the number of colonies was counted. Here, samples in which the concentration of the anti-cancer agent to be administered was varied were prepared, and in each sample, the survival fraction of the cells compared with the case where cells were cultured without administration of the pharmaceutical composition was measured. Regarding the type of anti-cancer agent to be administered, a predetermined anti-cancer agent was selected depending on the type of administration target cells. Note that cells that were cultured without administration of the pharmaceutical composition and the anti-cancer agent were used as a control. Hereinafter, these steps will be described.
(§2) Here, CHO cells, V79 cells, and canine-derived cancer cells were prepared as the test cells. The CHO cells are ovarian cells derived from Chinese hamsters, and the V79 cells are fibroblasts derived from the lungs of Chinese hamsters. Melanoma developing cells (CML6M) and soft tissue sarcoma developing cells (STSA-1) were used as the cancer cells.
(§3) The cancer cells were prepared by being cultured using an αMEM culture medium supplemented with 10% serum and an antibiotic. The cancer cells were prepared such that, when the concentration of the cells in a cell suspension obtained by subjecting the cultured cells to PBS washing and trypsin treatment, the concentration was within a predetermined concentration range. Here, the predetermined concentration ranges were 300 cells/well, 100 to 150 cells/well, and 500 to 1000 cells/well for the CHO/V79 cells, the melanoma cells, and the soft tissue sarcoma cells, respectively.
(§4) Next, the cancer cells were cultured in culture environments to which the anti-cancer agent was added at various concentrations, and were then allowed to form colonies. The culture periods for colony formation were a week, 10 days, and 14 days for CHO and V79, melanoma, and soft tissue sarcoma, respectively. After colonies were formed, washing using a physiological saline solution, fixation using 100% ethanol, and staining using 0.1% crystal violet were performed, and then the number of colonies per well was counted under a microscope. Note that, here, the colony was defined as containing 50 or more cells. […]
In the above examples, the anti-cancer agent and the pharmaceutical composition were administered to the test cells and then the cells were cultured. In this example, test cells were cultured after administering pharmaceutical composition (SQAP) alone without administering the anti-cancer agent to the test cells, and then the number of colonies was counted after colonies were formed. […]

V79 cells = assay: Colony formation, survival fraction of V79 cells; assay type: cell-based, Chinese hamsters; details: SQAP not administered
Description: as §1, §2, §3, §4
A graph with the horizontal axis representing the concentration of the anti-cancer agent and the vertical axis representing the survival fraction was created by plotting the survival fraction measurement results relative to the SQAP administration amounts, and the effect of the addition of SQAP on the survival fraction was examined. Hereinafter, the results from each anti-cancer agent will be shown in a table and described. […]
V79 cells were used as the cells, and cisplatin was used as the anti-cancer agent. The cisplatin was administered at concentrations of 0 μg/mL, 0.1 μg/mL, 0.2 μg/mL, 0.3 μg/mL, 0.4 μg/mL, and 0.5 μg/mL.
V79 cells were used as the cells, and camptothecin was used as the anti-cancer agent. The amount of the camptothecin was set to 0 nM, 5 nM, 10 nM, 15 nM, and 20 nM.
V79 cells were used as the cells, and mitomycin C was used as the anti-cancer agent. The amount of MMC was set to 0 nM, 100 nM, 200 nM, 300 nM, 400 nM, and 500 nM. […]
V79 cells were used as the cells, and taxol was used as the anti-cancer agent. The amount of the taxol was set to 0 nM, 10 nM, 20 nM, and 30 nM.
V79 cells were used as the cells, and MMS was used as the anti-cancer agent. The amount of the MMS was set to 0 μM, 10 μM, 20 μM, 30 μM, and 40 μM.
(§5) In the above examples, the anti-cancer agent and the pharmaceutical composition were administered to the test cells and then the cells were cultured. […]

[3] = system: Melanoma developing cells (CML6M); assay: Colony formation, survival fraction of canine melanoma cells; assay type: cell-based; details: melanoma cells; doxorubicin 15 nM, SQAP not administered
Description: as §1, §2, §3
(§6) Next, the cancer cells were cultured in culture environments to which the anti-cancer agent was added at various concentrations, and were then allowed to form colonies. The culture periods for colony formation were a week, 10 days, and 14 days for CHO and V79, melanoma, and soft tissue sarcoma, respectively. After colonies were formed, washing using a physiological saline solution, fixation using 100% ethanol, and staining using 0.1% crystal violet were performed, and then the number of colonies per well was counted under a microscope. Note that, here, the colony was defined as containing 50 or more cells. Moreover, mitomycin C, doxorubicin, bleomycin, camptothecin, etoposide, taxol, methyl methanesulfonate, and cisplatin were used as the anti-cancer agent.
(§7) A graph with the horizontal axis representing the concentration of the anti-cancer agent and the vertical axis representing the survival fraction was created by plotting the survival fraction measurement results relative to the SQAP administration amounts, and the effect of the addition of SQAP on the survival fraction was examined. Hereinafter, the results from each anti-cancer agent will be shown in a table and described.
Canine-derived melanoma cells and soft tissue sarcoma cells were used as the cells, and doxorubicin was used as the anti-cancer agent. […] Also, the concentration of the doxorubicin administered to the soft tissue sarcoma cells was set to 0 nM, 5 nM, 10 nM, and 15 nM. […] In Table 2, survival fractions in the case where SQAP was not administered are shown with a solid line, survival fractions in the case where SQAP was administered at a concentration of 10 μM are shown with a broken line, survival fractions in the case where SQAP was administered at a concentration of 20 μM are shown with a 1-dot chain line, and survival fractions in the case where SQAP was administered at a concentration of 30 μM are shown with a 2-dot chain line.
as §5

[4] = system: soft tissue sarcoma developing cells (STSA-1); assay: Colony formation, survival fraction of canine soft tissue sarcoma cells; assay type: cell-based; details: soft tissue sarcoma cells; doxorubicin 10 nM, SQAP not administered
Description: as §1, §2, §3, §6, §7
Canine-derived melanoma cells and soft tissue sarcoma cells were used as the cells, and doxorubicin was used as the anti-cancer agent. The amount of the doxorubicin administered to the melanoma cell was set to 0 nM, 5 nM, 10 nM, 15 nM, 20 nM, and 25 nM. […] In Table 2, survival fractions in the case where SQAP was not administered are shown with a solid line, survival fractions in the case where SQAP was administered at a concentration of 10 μM are shown with a broken line, survival fractions in the case where SQAP was administered at a concentration of 20 μM are shown with a 1-dot chain line, and survival fractions in the case where SQAP was administered at a concentration of 30 μM are shown with a 2-dot chain line.
as §5

CCCCCCCCCCCCCCCCCC(=O)OCCCO[C@H]1O[C@H](CS(=O)(=O)[O-])[C@@H](O)[C@H](O)[C@H]1O.[Na+] [αSQAP C18:0]
increase in a tumor volume [1]: suppressed | increase in a tumor volume [2]: suppressed | angiogenesis in an in-vitro test (angiogenesis): inhibited

CO[C@@]12[C@H](COC(N)=O)C3=C(C(=O)C(C)=C(N)C3=O)N1C[C@@H]1N[C@@H]12 [mitomycin C, reference compound]
survival fraction (CHO cells): about 40% | survival fraction (V79 cells; mitomycin C 500 nM): about 50%

CC(=O)O[C@H]1C(=O)[C@@]2(C)[C@H]([C@H](OC(=O)c3ccccc3)[C@]3(O)C[C@H](OC(=O)[C@H](O)[C@@H](NC(=O)c4ccccc4)c4ccccc4)C(C)=C1C3(C)C)[C@]1(OC(C)=O)CO[C@@H]1C[C@@H]2O [taxol, reference compound]
survival fraction (V79 cells; taxol 30 nM): about 5%

CCCCCCCCCCCCCCCCCC(=O)OCCCO[C@@H]1O[C@H](CS(=O)(=O)[O-])[C@@H](O)[C@H](O)[C@H]1O.[Na+] [βSQAP C18:0]
angiogenesis in an in-vitro test (angiogenesis): inhibited

N.N.[Cl][Pt][Cl] [cisplatin, reference compound]
survival fraction (V79 cells; cisplatin 0.3 μg/mL): about 40%

bleomycin [reference compound]
survival fraction (V79 cells; bleomycin 15 nM): about 40%

CCCCCCCCCC(=O)OCCCO[C@H]1O[C@H](CS(=O)(=O)[O-])[C@@H](O)[C@H](O)[C@H]1O.[Na+] [αSQAP C10:0]
angiogenesis in an in-vitro test (angiogenesis): inhibited

COc1cc([C@@H]2c3cc4c(cc3[C@@H](O[C@@H]3O[C@@H]5CO[C@@H](C)O[C@H]5[C@H](O)[C@H]3O)[C@H]3COC(=O)[C@H]23)OCO4)cc(OC)c1O [etoposide, reference compound]
survival fraction (V79 cells; etoposide 30 nM): about 30%

COc1cccc2c1C(=O)c1c(O)c3c(c(O)c1C2=O)C[C@@](O)(C(=O)CO)C[C@@H]3O[C@H]1C[C@H](N)[C@H](O)[C@H](C)O1 [doxorubicin, reference compound]
survival fraction [3]: about 20% | survival fraction [4]: about 6%

COS(C)(=O)=O [MMS, methyl methanesulfonate, reference compound]
survival fraction (V79 cells; MMS 40 μM): about 40%

CCCCCCCCCCCCCC(=O)OCCCO[C@H]1O[C@H](CS(=O)(=O)[O-])[C@@H](O)[C@H](O)[C@H]1O.[Na+] [αSQAP C14:0]
angiogenesis in an in-vitro test (angiogenesis): inhibited

CC[C@@]1(O)C(=O)OCc2c1cc1n(c2=O)Cc2cc3ccccc3nc2-1 [camptothecin, reference compound]
survival fraction (V79 cells; camptothecin 20 nM): about 15%

CCCCCCCCCCCCCCCCCCCCCC(=O)OCCCO[C@H]1O[C@H](CS(=O)(=O)[O-])[C@@H](O)[C@H](O)[C@H]1O.[Na+] [αSQAP C22:0]
angiogenesis in an in-vitro test (angiogenesis): inhibited
